We go through 20 molecules from patent publication US20250163038A1, “CBL-B MODULATORS AND USES THEREOF” (Nimbus Clio, Inc., priority 2021, published 2025).

A value given as a limit tells only on which side of the number the result lay.

The target of test [1] is Recombinant human Cbl-b (aa 36-427) (Homo sapiens, UniProt Q13191). The experiment in a line: Cbl-b Biochemical Assay (TR-FRET). The conditions noted are these: read-out: TR-FRET hCbl-b IC50. Background: In TR-FRET formats the signal depends on donor and acceptor labels being close together.
Test [2] concerns Jurkat (clone E6-1) cells with NFAT luciferase reporter. The experiment in a line: Jurkat reporter assay (NFAT Luciferase). The format is cell-based. The conditions noted are these: Homo sapiens; Jurkat NFAT luciferase reporter cells, anti-CD3 stimulation, 6 hr; read-out: Jurkat NFAT EC50. On the technique in general: A reporter such as luciferase makes a cellular process visible.

Test [3] deals with T1, Recombinant human c-Cbl (aa 47-435) (Homo sapiens, UniProt P22681).
T1 sequence (P22681 47-435): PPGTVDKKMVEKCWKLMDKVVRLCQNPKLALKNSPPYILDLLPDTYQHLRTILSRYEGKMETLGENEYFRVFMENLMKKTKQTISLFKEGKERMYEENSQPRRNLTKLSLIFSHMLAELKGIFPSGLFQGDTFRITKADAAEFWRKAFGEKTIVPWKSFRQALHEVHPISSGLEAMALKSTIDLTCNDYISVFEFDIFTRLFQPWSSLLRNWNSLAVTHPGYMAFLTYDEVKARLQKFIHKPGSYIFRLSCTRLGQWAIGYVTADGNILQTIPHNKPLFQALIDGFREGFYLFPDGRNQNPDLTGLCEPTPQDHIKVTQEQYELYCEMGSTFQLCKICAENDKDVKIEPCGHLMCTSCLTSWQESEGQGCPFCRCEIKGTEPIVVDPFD
Nature of the test: c-Cbl Biochemical Assay (TR-FRET). The conditions noted are these: hc-Cbl Biochemical Assay (TR-FRET); read-out: TR-FRET hcCbl IC50.

Sequence of Recombinant human Cbl-b (aa 36-427) (Q13191 36-427): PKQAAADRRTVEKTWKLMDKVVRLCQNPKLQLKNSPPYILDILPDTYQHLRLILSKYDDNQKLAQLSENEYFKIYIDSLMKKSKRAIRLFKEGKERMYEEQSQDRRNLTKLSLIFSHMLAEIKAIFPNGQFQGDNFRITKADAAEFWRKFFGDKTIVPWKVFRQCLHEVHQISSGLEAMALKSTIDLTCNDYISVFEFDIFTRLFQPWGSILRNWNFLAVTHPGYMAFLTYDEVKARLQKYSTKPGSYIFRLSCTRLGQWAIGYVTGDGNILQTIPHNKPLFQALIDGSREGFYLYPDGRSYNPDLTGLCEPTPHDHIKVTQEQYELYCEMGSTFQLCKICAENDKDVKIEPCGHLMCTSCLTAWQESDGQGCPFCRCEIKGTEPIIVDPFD

One may read the IC50 as the point on the concentration scale where inhibition reaches its midpoint. One may read the EC50 as the concentration giving half of the maximal effect. With `COc1cc(CNCCOC(C)C)cc2nc(-c3cccc(-c4ccc(F)cc4-c4nncn4C)c3)oc12` [GE-2, N-((2-(4′-Fluoro-2′-(4-methyl-4H-1,2,4-triazol-3-yl)-[1,1′-biphenyl]-3-yl)-7-methoxybenzo[d]oxazol-5-yl)methyl)-2-isopropoxyethan-1-amine, formic Acid], the IC50 in test [1] is less than 200 nM; in test [3] it was 200 to 1000 nM. In addition, the EC50 in test [2] was in the range of 1000 to 10000 nM.

`COc1cc(CN[C@@H](C)C2CCC2)cc2nc(-c3cccc(-c4ccc(F)cc4-c4nncn4C)c3)oc12` [GF-2, (S)-1-Cyclobutyl-N-((2-(4′-fluoro-2′-(4-methyl-4H-1,2,4-triazol-3-yl)-[1,1′-biphenyl]-3-yl)-7-methoxybenzo[d]oxazol-5-yl)methyl)ethan-1-amine]: the IC50 in test [1] and in test [3] was less than 200 nM in each case. Moreover, in test [2], the EC50 was less than 200 nM.

As for `COc1cc(CNCCC2CCC2)cc2nc(-c3cccc(-c4ccc(F)cc4-c4nncn4C)c3)oc12` [GG-2, 2-Cyclobutyl-N-((2-(4′-fluoro-2′-(4-methyl-4H-1,2,4-triazol-3-yl)-[1,1′-biphenyl]-3-yl)-7-methoxybenzo[d]oxazol-5-yl)methyl)ethan-1-amine], the IC50 in test [1] and in test [3] was less than 200 nM each time. Also, in test [2], the EC50 lay within 200 to 1000 nM.

In the case of `COc1cc(CNC2CCC2)cc2nc(-c3cccc(-c4ccc(F)cc4-c4nncn4C)c3)oc12` [GH-1, N-((2-(4′-Fluoro-2′-(4-methyl-4H-1,2,4-triazol-3-yl)-[1,1′-biphenyl]-3-yl)-7-methoxybenzo[d]oxazol-5-yl)methyl)cyclobutanamine], the results for the IC50 in test [1] and in test [3] were less than 200 nM and 200 to 1000 nM, respectively. Also, the EC50 in test [2] fell in the range of 200 to 1000 nM.

Turning to `COc1cc(CN[C@@H]2CCC[C@]2(C)O)cc2nc(-c3cccc(-c4ccc(F)cc4-c4nncn4C)c3)oc12` [GI-2, (1S,2R)-2-(((2-(4′-Fluoro-2′-(4-methyl-4H-1,2,4-triazol-3-yl)-[1,1′-biphenyl]-3-yl)-7-methoxybenzo[d]oxazol-5-yl)methyl)amino)-1-methylcyclopentan-1-ol, Formic Acid], the IC50 in test [1] and in test [3] was 200 to 1000 nM throughout. Also, the EC50 in test [2] was in the range of 1000 to 10000 nM.

On to `COc1cc(CN[C@@H]2CCC[C@@]2(C)O)cc2nc(-c3cccc(-c4ccc(F)cc4-c4nncn4C)c3)oc12` [GJ-2, (1R,2R)-2-(((2-(4′-fluoro-2′-(4-methyl-4H-1,2,4-triazol-3-yl)-[1,1′-biphenyl]-3-yl)-7-methoxybenzo[d]oxazol-5-yl)methyl)amino)-1-methylcyclopentan-1-ol, Formic Acid], for which the IC50 in test [1] and in test [3] was 200 to 1000 nM throughout. Moreover, in test [2], the EC50 fell in the range of 1000 to 10000 nM.

As for `Cn1cnnc1-c1cc(F)ccc1-c1cccc(-c2nc3ccc(CN[C@@H]4CCC[C@@H]4O)cn3n2)c1` [GK-5, (1S,2R)-2-(((2-(4′-Fluoro-2′-(4-methyl-4H-1,2,4-triazol-3-yl)-[1,1′-biphenyl]-3-yl)-[1,2,4]triazolo[1,5-a]pyridin-6-yl)methyl)amino)cyclopentan-1-ol, Formic Acid], the IC50 is less than 200 nM in test [1] and 200 to 1000 nM in test [3]. In addition, the EC50 in test [2] was in the range of 1000 to 10000 nM.

Turning to `Cn1cnnc1-c1cc(F)ccc1-c1cccc(-c2cn3cc(CN[C@@H]4CCC[C@@H]4O)ccc3n2)c1` [GL-2, (1S,2R)-2-(((2-(4′-fluoro-2′-(4-methyl-4H-1,2,4-triazol-3-yl)-[1,1′-biphenyl]-3-yl)imidazo[1,2-a]pyridin-6-yl)methyl)amino)cyclopentan-1-ol], the IC50 in test [1] and in test [3] was 1000 to 10000 nM in each case. Further, in test [2], the EC50 was 10000 to 50000 nM.

Consider `COCCN(C)Cc1cc(OC)c2oc(-c3cccc(-c4ccc(F)cc4-c4nncn4C)c3)nc2c1` [GM-2, N-((2-(4′-Fluoro-2′-(4-methyl-4H-1,2,4-triazol-3-yl)-[1,1′-biphenyl]-3-yl)-7-methoxybenzo[d]oxazol-5-yl)methyl)-2-methoxy-N-methylethan-1-amine], for which the IC50 in test [1] lay within 200 to 1000 nM; in test [3], 1000 to 10000 nM. In test [2], the EC50 lay within 10000 to 50000 nM.

Regarding `Cn1cnnc1-c1cc(F)ccc1-c1cccc(-c2cn3ccc(CO)cc3n2)c1` [GN-5, (2-(4′-Fluoro-2′-(4-methyl-4H-1,2,4-triazol-3-yl)-[1,1′-biphenyl]-3-yl)imidazo[1,2-a]pyridin-7-yl)methanol], the IC50 in test [1] and in test [3] was 10000 to 50000 nM in each case. Besides, in test [2], the EC50 was in the range of 10000 to 50000 nM.

In the case of `Cn1cnnc1-c1cc(F)ccc1-c1cccc(-c2cn3ccc(CN[C@@H]4CCC[C@@H]4O)cc3n2)c1` [GO-2, (1S,2R)-2-(((2-(4′-Fluoro-2′-(4-methyl-4H-1,2,4-triazol-3-yl)-[1,1′-biphenyl]-3-yl)imidazo[1,2-a]pyridin-7-yl)methyl)amino)cyclopentan-1-ol], the IC50 in test [1] and in test [3] was less than 200 nM throughout. Moreover, in test [2], the EC50 lay within 200 to 1000 nM.

On to `Cn1cnnc1-c1cc(F)ccc1-c1cccc(-c2nc3cc(CN[C@@H]4C[C@H](O)C4(C)C)cc(C(F)(F)F)c3o2)c1` [GP-2, (1S,3R)-3-(((2-(4′-Fluoro-2′-(4-methyl-4H-1,2,4-triazol-3-yl)-[1,1′-biphenyl]-3-yl)-7-(trifluoromethyl)benzo[d]oxazol-5-yl)methyl)amino)-2,2-dimethylcyclobutan-1-ol, Formic Acid], for which the IC50 in test [1] and in test [3] was less than 200 nM throughout. Moreover, the half-maximal effective concentration (EC50) in test [2] is 200 to 1000 nM.

Turning to `Cc1cc(CNCC2CCC2)cc2nc(-c3cccc(-c4ccc(F)cc4-c4nncn4C)c3)oc12` [GU-1, 1-Cyclobutyl-N-((2-(4′-fluoro-2′-(4-methyl-4H-1,2,4-triazol-3-yl)-[1,1′-biphenyl]-3-yl)-7-methylbenzo[d]oxazol-5-yl)methyl)methanamine], the IC50 in test [1] and in test [3] was less than 200 nM throughout. Further, in test [2], the EC50 is less than 200 nM.

Consider `COCCNCc1cc(C)c2oc(-c3cccc(-c4ccc(F)cc4-c4nncn4C)c3)nc2c1` [GV-1, N-((2-(4′-Fluoro-2′-(4-methyl-4H-1,2,4-triazol-3-yl)-[1,1′-biphenyl]-3-yl)-7-methylbenzo[d]oxazol-5-yl)methyl)-2-methoxyethan-1-amine], for which the results for the IC50 in test [1] and in test [3] were less than 200 nM and 200 to 1000 nM, respectively. Also, the EC50 in test [2] is 200 to 1000 nM.

`C[C@H](NCc1cc(C(F)(F)F)c2oc(-c3cccc(-c4ccc(F)cc4-c4nncn4C)c3)nc2c1)C1CCC1` [GW-2, (S)-1-Cyclobutyl-N-((2-(4′-fluoro-2′-(4-methyl-4H-1,2,4-triazol-3-yl)-[1,1′-biphenyl]-3-yl)-7-(trifluoromethyl)benzo[d]oxazol-5-yl)methyl)ethan-1-amine]: the IC50 in test [1] and in test [3] was less than 200 nM each time. Further, in test [2], the EC50 was less than 200 nM.

Consider `COc1cc(CN[C@H]2C[C@@H](O)C2)cc2nc(-c3cccc(-c4ccc(F)cc4-c4nncn4C)c3)oc12` [GX-1, (1S,3S)-3-(((2-(4′-Fluoro-2′-(4-methyl-4H-1,2,4-triazol-3-yl)-[1,1′-biphenyl]-3-yl)-7-methoxybenzo[d]oxazol-5-yl)methyl)amino)cyclobutan-1-ol], for which the values for the IC50 in test [1] and in test [3] were less than 200 nM and 200 to 1000 nM, respectively. The concentration giving a half-maximal response (EC50) in test [2] is 1000 to 10000 nM.

For the molecule `COc1cc(CN[C@H]2C[C@H](O)C2)cc2nc(-c3cccc(-c4ccc(F)cc4-c4nncn4C)c3)oc12` [GY-1, (1R,3R)-3-(((2-(4′-Fluoro-2′-(4-methyl-4H-1,2,4-triazol-3-yl)-[1,1′-biphenyl]-3-yl)-7-methoxybenzo[d]oxazol-5-yl)methyl)amino)cyclobutan-1-ol], the IC50 lay in the range of 200 to 1000 nM in test [1] and 1000 to 10000 nM in test [3]. For the same molecule, the EC50 in test [2] fell in the range of 10000 to 50000 nM.

With `COc1cc(CNCC2COC2)cc2nc(-c3cccc(-c4ccc(F)cc4-c4nncn4C)c3)oc12` [GZ-1, 1-(2-(4′-Fluoro-2′-(4-methyl-4H-1,2,4-triazol-3-yl)-[1,1′-biphenyl]-3-yl)-7-methoxybenzo[d]oxazol-5-yl)-N-(oxetan-3-ylmethyl)methanamine], the values for the IC50 in test [1] and in test [3] were less than 200 nM and 200 to 1000 nM, respectively. For the same molecule, the EC50 in test [2] is 200 to 1000 nM.

`[2H]C([2H])(N[C@@H]1CCC[C@@H]1O)c1cc(C(F)(F)F)c2oc(-c3cccc(-c4ccc(F)cc4-c4nncn4C)c3)nc2c1` [HA-3, (1S,2R)-2-(((2-(4′-Fluoro-2′-(4-methyl-4H-1,2,4-triazol-3-yl)-[1,1′-biphenyl]-3-yl)-7-(trifluoromethyl)benzo[d]oxazol-5-yl)methyl-d2)amino)cyclopentan-1-ol]: the half-inhibitory concentration (IC50) in test [1] and in test [3] was less than 200 nM in each case. For the same molecule, the EC50 in test [2] was less than 200 nM.

`[2H]C([2H])(NCC1(O)CCC1)c1cc(C(F)(F)F)c2oc(-c3cccc(-c4ccc(F)cc4-c4nncn4C)c3)nc2c1` [HB-1, 1-((((2-(4′-Fluoro-2′-(4-methyl-4H-1,2,4-triazol-3-yl)-[1,1′-biphenyl]-3-yl)-7-(trifluoromethyl)benzo[d]oxazol-5-yl)methyl-d2)amino)methyl)cyclobutan-1-ol]: the IC50 in test [1] and in test [3] was less than 200 nM each time. The EC50 in test [2] is less than 200 nM.
